According to paper PMC3070621, “Generation of novel cationic antimicrobial peptides from natural non-antimicrobial sequences by acid-amide substitution” (Annals of Clinical Microbiology and Antimicrobials, 2011):
No end group written: not given here.

Experiments:
[1] = system: Bacillus subtilis IFO3134; type: cell-based; details: IFO3134, 2 h, pH 7.5
Method: (§1) Microbicidal assay was performed as previously described. A low ionic strength condition was used to detect bactericidal activity with higher sensitivity. Briefly, each microbial strain in the mid-exponential phase was suspended in 10 mM Tris/HCl, pH 7.5. The microbial suspension was mixed with peptides. After 2 h incubation, the suspension was diluted 1,000 times and inoculated on to plates of IFO702 medium (1% polypeptone, 0.2% yeast extract, 0.1% MgSO4 7H2O, 2% agar). The numbers of colonies were counted, and a plot of peptide concentration vs colony number was created.

Escherichia coli JM109 = type: cell-based; details: JM109, 2 h, pH 7.5
Method: as §1

[2] = system: Micrococcus luteus IFO12708; type: cell-based; details: IFO12708, 2 h, pH 7.5
Method: as §1

[3] = system: Pseudomonas aeruginosa IFO3899; type: cell-based; details: IFO3899, 2 h, pH 7.5
Method: as §1

[4] = system: Saccharomyces cerevisiae MAFF113011; type: cell-based; details: MAFF113011, 2 h, pH 7.5
Method: as §1

[5] = system: Salmonella typhimurium IFO13245; type: cell-based; details: murium IFO13245, 2 h, pH 7.5
Method: as §1

[6] = system: Serratia marcescens IFO3736; type: cell-based; details: IFO3736, 2 h, pH 7.5
Method: as §1

[7] = system: Staphylococcus aureus IFO12732; type: cell-based; details: IFO12732, 2 h, pH 7.5
Method: as §1

[8] = cited from earlier work
Human erythrocytes = experiment: Hemolytic assay; type: cell-based; details: peptide 300 μg/mL, 10 mM Tris-HCl pH 7.5 with 308 mM sucrose, 0.5 h, A540, pure water = 100% lysis
Method: Hemolytic assay was performed as previously described. Human erythrocytes were used. Hemolysis was estimated as the leakage of haemoglobin. The erythrocytes were washed and resuspended in 10 mM Tris-HCl, pH 7.5, containing 308 mM sucrose. The erythrocyte suspension was diluted by 30%. The diluted suspension was mixed with the equal volume of peptide solution dissolved in the same buffer. After 0.5 h of incubation, the test suspension was centrifuged to remove the intact erythrocytes. The supernatant was diluted, and A540 was measured. The hemolysis caused by pure water was defined as 100% lysis.

[9] = Precipitation in the presence of PG/CL liposomes (CD sample conditions); type: physicochemical; details: peptide 100 μg/ml, PG/CL liposome 500 μg/ml, 10 mM Tris-HCl pH 7.5, 20°C
Method: CD spectra were recorded on a J-720 spectropolarimeter (JASCO, Tokyo, Japan) in the far-ultraviolet (UV) range from 190 to 260 nm using a 0.1 cm thermostatted cell at 25°C. Peptides were dissolved in 10 mM Tris-HCl (pH 7.5) containing tri-fluoroethanol (TFE) at 0-100%. For measurement under the presence of liposomes, peptides were dissolved at 100 μg/ml containing 500 μg/ml liposomes at 20°C.
Furthermore, membrane-disruptive activities against liposomes were also estimated. A liposome dye-leakage assay was used. […] In contrast, NP2P and NP3P damaged the PG/CL liposome membrane at ≥0.3 μg/ml (Figure 4). The concentration was equal or lower than MBCs against Gram-positive bacteria, which were measured under identical ionic conditions. […] Since CD spectra could not be measured, the conformation of NP3P in the presence of PG/CL membrane remains unclear.

[10] = Liposome disruption assay (calcein release), PG/CL liposomes; details: PG:CL = 3:1 (molar), 10 mM Tris-HCl pH 7.5 with 350 mM sucrose, room temperature, three independent trials
Method: (§2) Membrane-disrupting activity was estimated by liposome disruption assay. Bovine heart phosphatidylglycerol (PG), egg cardiolipin (CL), and egg phosphatidylcholine (PC) were purchased from Avanti Polar Lipids, Inc., Alabama, USA. A lipid film was prepared by rotary evaporation of lipid solution (1 mg lipid in 1 ml chloroform). The lipid film was hydrated with 1 ml of 10 mM Tris-HCl buffer (pH 7.5) containing 75 mM calcein. Lipid dispersions were sonicated and subjected to five freeze-thaw cycles. Non-trapped calcein was removed by gel filtration on a Sephacryl S-300 spin column (GE Healthcare Bio-Science Corp., Piscataway, NJ, USA) equilibrated with 10 mM Tris-HCl (pH 7.5) containing 175 mM NaCl and 1 mM EDTA. These calcein-entrapped liposomes were diluted at a ratio of 1:1000 in 10 mM Tris-HCl (pH 7.5) containing 350 mM sucrose. Calcein release after membrane disruption was evaluated by measuring fluorescence intensity at 515 nm with excitation at 492 nm on a RF-5300PC spectrofluorometer at room temperature.
Figure 4 Membrane-disruption against acidic-liposomes. Calcein release from vesicles consisting of PG:CL = 3:1 was measured. Each point was obtained from three independent trials using a single preparation of liposomes and peptides, and represents the mean ± standard error of the mean.

[11] = Liposome disruption assay (calcein release), PC liposomes
Method: as §2

Row | Substance | MBC [1] | MBC (Escherichia coli JM109) | MBC [2] | MBC [3] | MBC [4] | MBC [5] | MBC [6] | MBC [7] | enhancer activity for membrane-disruptive antimicrobial peptides [8] | Hemolytic activity (%) (Human erythrocytes) | precipitation in the presence of PG/CL liposome [9] | concentration causing dye-leakage (membrane damage) of PG/CL liposomes [10] [µg/mL] | effect on PC liposome membrane (in words) ([11]; PC liposomes, data not shown) | concentration causing dye-leakage (membrane disruption) of PC liposomes ([11]; PC only liposomes, 10 mM Tris-HCl pH 7.5 with 350 mM sucrose, room temperature) [µg/mL]
1 | HRRSVAHQQQASLHVKTNQLPSPNTVRQQL-OH [NP4P] | >300 (>300) μg/ml | >300 (>300) μg/ml | >300 (>300) μg/ml | >300 (>300) μg/ml | >300 (>300) μg/ml | >300 (>300) μg/ml | >300 (>300) μg/ml | >300 (>300) μg/ml | enhancer activity for membrane-disruptive antimicrobial peptides was detected |  |  |  |  | 
2 | RRRFVAEQDAIHSRVSREVPTLSDSV-OH [P1P] | > 300 µg/mL | > 300 µg/mL | > 300 µg/mL | > 300 µg/mL | > 300 µg/mL | > 300 µg/mL | >300 (>300) μg/ml | > 300 µg/mL |  | 0.00 ± 0.00 |  |  |  | 
3 | HRRSVAHQEEASLHVKTDELPSPDTVREQL-OH [P4P] | >300 (>300) μg/ml | >300 (>300) μg/ml | >300 (>300) μg/ml | >300 (>300) μg/ml | >300 (>300) μg/ml | >300 (>300) μg/ml | >300 (>300) μg/ml | >300 (>300) μg/ml |  |  |  |  |  | 
4 | RRRSVGEEDAIPSHIEVNKFFLRKPAKEHI-OH [P3P] | > 300 µg/mL | > 300 µg/mL | 200 µg/mL | 70 µg/mL | > 300 µg/mL | > 300 µg/mL | >300 (>300) μg/ml | > 300 µg/mL |  | 1.69 ± 0.05 | not affected |  |  | 
5 | RRRSVGQQNAIPSHIQVNKFFLRKPAKQHI-OH [NP3P] | 20 µg/mL | 7 µg/mL | 10 µg/mL | 20 µg/mL | 7 µg/mL | 20 µg/mL | >300 (>300) μg/ml | 5 µg/mL |  | 2.61 ± 0.02 | precipitated | ≥ 0.3 | did not affect PC liposome membrane | 
6 | RRRFVAQQNAIHSRVSRQVPTLSNSV-OH [NP1P] | 30 µg/mL | 10 µg/mL | 30 µg/mL | 20 µg/mL | 200 µg/mL | 30 µg/mL | >300 (>300) μg/ml | 10 µg/mL |  | 1.32 ± 0.02 |  | > 200 |  | > 200
